Experimental data: ChEMBL document CHEMBL1201862, “PubChem BioAssay data set” (2004)
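Protocol summary: plate cells (96-well), add compound at 5 concentrations, incubate 48 h, interpolate endpoints linearly. GI50 marks 50% less growth.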 Active and inactive are the calls of the source. No stated cut-off is given here; in the data, active = GI50 up to about 1.1 µM and inactive = higher.

Tests used:
Assay in all cases: NCI-60 cell line screen, 48 h
DU-145 = test system: DU-145
HCT-15 = test system: HCT-15
Hs-578T = test system: Hs-578T
IGROV-1 = test system: IGROV-1
K562 = test system: K562
MDA-MB-231 = test system: MDA-MB-231
MDA-MB-435 = test system: MDA-MB-435
MDA-N = test system: MDA-N
MOLT-4 = test system: MOLT-4
NCI-H460 = test system: NCI-H460
NCI/ADR-RES = test system: NCI/ADR-RES
OVCAR-3 = test system: OVCAR-3
RXF 393 = test system: RXF 393
SK-MEL-28 = test system: SK-MEL-28
SNB-75 = test system: SNB-75
SR = test system: SR
UACC-257 = test system: UACC-257
UACC-62 = test system: UACC-62
UO-31 = test system: UO-31
TK-10 = test system: TK-10

Structure (SMILES)	GI50 (DU-145)	GI50 (HCT-15) [µM]	GI50 (Hs-578T)	GI50 (IGROV-1)	GI50 (K562)	GI50 (MDA-MB-231)	GI50 (MDA-MB-435)	GI50 (MDA-N)	GI50 (MOLT-4)	GI50 (NCI-H460)	GI50 (NCI/ADR-RES)	GI50 (OVCAR-3)	GI50 (RXF 393)	GI50 (SK-MEL-28)	GI50 (SNB-75)	GI50 (SR)	GI50 (UACC-257)	GI50 (UACC-62)	GI50 (UO-31)	GI50 (TK-10)
CCOC(=O)c1cc2c([nH]1)c(OC(C)=O)cc1c2ccn1Cc1ccccc1	> 100 µM (inactive)	> 100	> 100 µM (inactive)	> 100 µM (inactive)	> 100 µM (inactive)	> 100 µM (inactive)	> 100 µM (inactive)	> 100 µM (inactive)	> 100 µM (inactive)	> 100 µM (inactive)	> 100 µM (inactive)	> 100 µM (inactive)	> 100 µM (inactive)	> 100 µM (inactive)	> 100 µM (inactive)	> 100 µM (inactive)	> 100 µM (inactive)	> 100 µM (inactive)	> 100 µM (inactive)	
N=C/N=C/C(=S)O[C@@H]1C(=O)N2CCC[C@@]23CCCC[C@@H]13	> 12.5 µM (inactive)	> 12.5	> 12.5 µM (inactive)	> 12.5 µM (inactive)	> 12.5 µM (inactive)	> 12.5 µM (inactive)	> 12.5 µM (inactive)	> 12.5 µM (inactive)		> 12.5 µM (inactive)	> 12.5 µM (inactive)		> 12.5 µM (inactive)	> 12.5 µM (inactive)	> 12.5 µM (inactive)	> 12.5 µM (inactive)	> 12.5 µM (inactive)	> 12.5 µM (inactive)	> 12.5 µM (inactive)	> 12.5 µM (inactive)
CCCCCCCCCCCCCCCCCCN(C)C(COC)COP(=O)([O-])OCC[N+](C)(C)C (stereo unspecified)	10.1 µM (inactive)		3.19 µM (inactive)	1.3 µM (inactive)	11.8 µM (inactive)	5.73 µM (inactive)	15.6 µM (inactive)	15.6 µM (inactive)	1.82 µM (inactive)	1.78 µM (inactive)	24.5 µM (inactive)	7.24 µM (inactive)	1.57 µM (inactive)	18.5 µM (inactive)	2.97 µM (inactive)	2.23 µM (inactive)	14.6 µM (inactive)	5.16 µM (inactive)	16 µM (inactive)	1.84 µM (inactive)
O=c1c(-c2c(-c3ccccc3)oc3ccc(Cl)cc3c2=O)c(-c2ccccc2)oc2ccc(Cl)cc12	> 100 µM (inactive)	> 100	> 49.8 µM (inactive)	> 56.2 µM (inactive)	> 100 µM (inactive)	> 40.3 µM (inactive)	> 100 µM (inactive)	> 100 µM (inactive)	> 100 µM (inactive)	> 94.8 µM (inactive)	> 100 µM (inactive)	> 100 µM (inactive)	> 100 µM (inactive)	> 100 µM (inactive)	> 44.1 µM (inactive)	> 100 µM (inactive)	> 100 µM (inactive)	> 82.8 µM (inactive)		> 100 µM (inactive)
O=C1CC(NC(=O)C(F)(F)F)c2c1csc2Br (stereo unspecified)	2.11 µM (inactive)	88.5	> 100 µM (inactive)	> 100 µM (inactive)	48.3 µM (inactive)	> 100 µM (inactive)	56.5 µM (inactive)	33.5 µM (inactive)	31.5 µM (inactive)	1.51 µM (inactive)	> 100 µM (inactive)	2.45 µM (inactive)	2.87 µM (inactive)	> 100 µM (inactive)		36.9 µM (inactive)	> 100 µM (inactive)	> 100 µM (inactive)	45.5 µM (inactive)	4.91 µM (inactive)
CC(C)(C)OC(=O)N1CCc2[nH][nH]c(=O)c2C1	> 100 µM (inactive)	> 100	> 100 µM (inactive)	> 100 µM (inactive)	> 100 µM (inactive)	> 100 µM (inactive)	> 100 µM (inactive)	> 100 µM (inactive)	> 100 µM (inactive)	> 100 µM (inactive)	> 100 µM (inactive)	> 100 µM (inactive)	> 100 µM (inactive)	> 100 µM (inactive)		> 100 µM (inactive)	> 100 µM (inactive)	> 100 µM (inactive)	> 100 µM (inactive)	> 100 µM (inactive)
Cc1nc(Nc2nc3ccccc3[nH]2)nc(Cl)c1CCCl	> 100 µM (inactive)	> 100	83.8 µM (inactive)	> 100 µM (inactive)	> 100 µM (inactive)	> 100 µM (inactive)	> 100 µM (inactive)	> 100 µM (inactive)	> 100 µM (inactive)	> 100 µM (inactive)	> 100 µM (inactive)			> 100 µM (inactive)	89.3 µM (inactive)	> 100 µM (inactive)	> 100 µM (inactive)	> 100 µM (inactive)	> 100 µM (inactive)	> 100 µM (inactive)
